Structures are written as SMILES.

The target of the assay is T1, human muscarinic M3 receptor (Homo sapiens, UniProt P20309).
T1 construct: expressed in transfected cells
T1 sequence (P20309 whole entry): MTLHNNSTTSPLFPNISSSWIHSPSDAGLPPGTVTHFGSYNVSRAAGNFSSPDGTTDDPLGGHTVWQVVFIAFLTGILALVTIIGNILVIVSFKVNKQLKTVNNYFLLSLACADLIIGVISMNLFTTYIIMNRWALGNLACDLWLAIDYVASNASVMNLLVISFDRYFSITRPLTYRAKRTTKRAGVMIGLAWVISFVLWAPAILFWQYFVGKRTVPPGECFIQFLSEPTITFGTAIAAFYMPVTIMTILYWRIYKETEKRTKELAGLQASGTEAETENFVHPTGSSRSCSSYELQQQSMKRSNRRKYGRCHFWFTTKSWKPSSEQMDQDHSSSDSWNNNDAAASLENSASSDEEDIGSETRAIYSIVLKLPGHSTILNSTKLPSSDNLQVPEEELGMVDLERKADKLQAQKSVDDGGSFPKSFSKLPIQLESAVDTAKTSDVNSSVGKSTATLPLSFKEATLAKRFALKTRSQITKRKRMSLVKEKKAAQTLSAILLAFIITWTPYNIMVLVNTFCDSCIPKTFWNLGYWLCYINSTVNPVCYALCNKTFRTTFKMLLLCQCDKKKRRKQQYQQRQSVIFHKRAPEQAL
Briefly: hM3 β-Lac potency assay (cell based β-lactamase). As to conditions: CHO cells expressing human M3 receptor, NFAT β-lactamase reporter; inhibition of 80 nM carbamyl choline signal, 4 h; IC50 converted to Ki by Cheng-Prusoff; read-out: Cell based β-lactamase M3 Ki. Here is the method:
M3 potency was determined in CHO-K1 cells transfected with the NFAT-Betalactamase gene. CHO (Chinese Hamster Ovary) cells recombinantly expressing the human muscarinic M3 receptor were transfected with the NFAT_β-Lac_Zeo plasmid.
The cells were re-suspended at 2×10^5 cells/ml in growth medium (composition as described above). […] Inhibition curves were plotted and IC50 values generated using a 4-parameter sigmoid fit and converted to Ki values using the Cheng-Prusoff correction and the KD value for carbamyl choline in the assay.
For `COc1cccc(O[C@H]2CCN(C(C)(C)CCC(C(N)=O)(c3ccccc3)c3ccccc3)C2)c1F` [Example 51, 5-[(3S)-3-(2-Fluoro-3-Methoxy-phenoxy)-pyrrolidin-1-yl]-5-methyl-2,2-diphenyl-hexanoic acid amide], the Ki was determined as 0.623 nM.

Regarding `CC(C)(CCC(C(N)=O)(c1ccccc1)c1ccccc1)N1CC[C@H](Oc2ccc(F)c(O)c2)C1` [Example 52, 5-[(3S)-3-(4-Fluoro-3-Hydroxy-phenoxy)-pyrrolidin-1-yl]-5-methyl-2,2-diphenyl-hexanoic acid amide], the Ki turned out to be 2.16 nM.

Turning to `CC(C)(CCC(C(N)=O)(c1ccccc1)c1ccccc1)N1CC[C@H](Oc2cccc(O)c2F)C1` [Example 53, 5-[(3S)-3-(2-Fluoro-3-Hydroxy-phenoxy)-pyrrolidin-1-yl]-5-methyl-2,2-diphenyl-hexanoic acid amide], the Ki turned out to be 0.334 nM.

Regarding `CC(C)(CCC(C(N)=O)(c1ccccc1)c1ccccc1)N1CC[C@@H](OCc2cccc(O)c2)C1` [Example 54, 5-[(3R)-3-(3-Hydroxy-benzyloxy)-pyrrolidin-1-yl]-5-methyl-2,2-diphenyl-hexanoic acid amide], the Ki came to 3.62 nM.

In the case of `CC(C)(CCC(C#N)(c1ccccc1)c1ccccc1)N1CC[C@H](OCc2cccc(-c3ccccc3O)c2)C1` [Example 58, 5-{(3S)-3-[(2′-Hydroxybiphenyl-3-yl)methoxy]pyrrolidin-1-yl}-5-methyl-2,2-diphenylhexanenitrile], the Ki was 1580 nM.

As to `CC(C)(CCC(C(N)=O)(c1ccccc1)c1ccccc1)N1CC[C@H](OCc2cccc(-c3cccc(O)c3)c2)C1` [Example 61, 5-{(3S)-3-[(3′-Hydroxybiphenyl-3-yl)methoxy]pyrrolidin-1-yl}-5-methyl-2,2-diphenylhexanamide], the Ki is 9.85 nM.

Take `CC(C)(CCC(C#N)(c1ccccc1)c1ccccc1)N1CC[C@H](OCc2cccc(-c3ccc(O)cc3)c2)C1` [Example 62, 5-[(3S)-3-[(4′-Hydroxybiphenyl-3-yl)methoxy]-pyrrolidin-1-yl]5-methyl-2,2-diphenylhexanenitrile]: the Ki came to 57.4 nM.

`CC(C)(CCC(C(N)=O)(c1ccccc1)c1ccccc1)N1CC[C@H](OCc2cccc(-c3ccc(O)cc3)c2)C1` [Example 63, 5-{(3S)-3-[(4′-Hydroxybiphenyl-3-yl)methoxy]pyrrolidin-1-yl}-5-methyl-2,2-diphenylhexanamide]: the Ki is 28.7 nM.

In the case of `CC(C)(CCC(C(N)=O)(c1ccccc1)c1ccccc1)N1CC[C@H](OCc2cccc(-c3ccccc3O)c2)C1` [Example 64, 5-{(3S)-3-[(2′-Hydroxybiphenyl-3-yl)methoxy]pyrrolidin-1-yl}-5-methyl-2,2-diphenylhexanamide], the Ki was determined as 65.6 nM.

Consider `CC(C)(CCC(C(N)=O)(c1ccccc1)c1ccccc1)N1CC[C@H](OCc2ccc(-c3cccc(O)c3)cc2)C1` [Example 65, 5-[(3S)-3-[(3′-Hydroxybiphenyl-4-yl)methoxy]pyrrolidin-1-yl]5-methyl-2,2-diphenylhexanamide], for which the Ki worked out at 62.7 nM.

`CC(C)(CCC(C(N)=O)(c1ccccc1)c1ccccc1)N1CC[C@H](OCc2cccc(-c3ccccc3)c2)C1` [Example 66, 5-[(3S)-3-(Biphenyl-3-ylmethoxy)pyrrolidin-1-yl]-5-methyl-2,2-diphenylhexanamide]: the Ki was 45.4 nM.

Regarding `CC(C)(CCC(C(N)=O)(c1ccccc1)c1ccccc1)N1CC[C@@H](OCc2ccc(F)c(O)c2)C1` [Example 67, 5-[(3R)-3-(4-Fluoro-3-hydroxy-benzyloxy)-pyrrolidin-1-yl]-5-methyl-2,2-diphenylhexanamide], the inhibition constant (Ki) worked out at 10.7 nM.

In the case of `CC(C)(CCC(C(N)=O)(c1ccccc1)c1ccccc1)N1CC[C@H](Oc2cc(O)cc(C#N)c2)C1` [Example 68, 5-[(3S)-3-(3-Cyano-5-hydroxy-phenoxy)-pyrrolidin-1-yl]-5-methyl-2,2-diphenylhexanamide], the inhibition constant Ki was 9.88 nM.
